Measurements published in patent US8580829B2 (Boehringer Ingelheim International GmbH, priority 2010, dated 2013).
Read-outs that look alike come from different tables or passages of the source.

Experiments:
[1] = test system: biomarkers for myocardial infarction risk; settings: clinical trial; cited from earlier work
[2] = biological target: T1, recombinant human FLAP protein (Homo sapiens, UniProt P20292); experiment: FLAP binding assay (Scintillation Proximity Assay, displacement of [125I]L-691,831); settings: recombinant human FLAP membranes, [125I]L-691,831 probe; read-out: FLAP SPA IC50
T1 construct: made in house; host or cells: Sf9 insect cells (100,000 x g membrane fraction)
T1 sequence (P20292 1-161): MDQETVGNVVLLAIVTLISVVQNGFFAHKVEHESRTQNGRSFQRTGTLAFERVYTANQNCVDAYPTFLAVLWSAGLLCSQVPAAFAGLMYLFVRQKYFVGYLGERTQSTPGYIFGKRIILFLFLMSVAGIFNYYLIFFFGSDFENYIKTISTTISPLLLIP
How it was run: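 WGA scintillation proximity beads were stirred 1 h with 5 μg of FLAP-containing membrane protein. The membranes came from baculovirus Sf9 cells, Dounce-lysed and spun to a 100,000×g pellet in buffer at pH 7.5.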

[3] = test system: synthesis of LTB4 in human whole blood; experiment: human whole blood LTB4 production inhibition assay; assay type: cell-based; settings: heparinized human whole blood, calcimycin 20 μM, read-out: hWB LTB4 IC50
How it was run: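 Readout: plasma LTB4 by antibody-based HTRF. Compound added to heparinized human whole blood, 15 min 37° C; calcimycin 20 μM final (PBS pH 7.4), 30 min 37° C; spun 1500×g 5 min, plasma taken.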

[4] = test system: human glomerulonephritis; settings: clinical trial; cited from earlier work
[5] = test system: ApoE−/−xCD4dnTβRII mice; settings: infusion, treated for four weeks; cited from earlier work
[6] = test system: apoE/LDL-R double knockout mice; settings: oral dosing, high-fat diet from 2 months of age to 6 months; cited from earlier work

For `O=C(O)[C@@H](c1ccc(OCc2ccc3ccccc3n2)cc1)C1CCCC1` [DG-031], the “effect on biomarkers for myocardial infarction risk” value [1] is listed as “dose-dependent suppression of several biomarkers”.
`CNc1ncc(-c2ccc(C3(c4noc(-c5cnn(C)c5)n4)CCC3)cc2)cn1` [Example 294, Methyl-[5-(4-{1-[5-(1-methyl-1H-pyrazol-4-yl)-[1,2,4]oxadiazol-3-yl]-cyclobutyl}-phenyl)-pyrimidin-2-yl]-amine] showed an IC50 [2] of 4.4 nM and an IC50 ([3]; Homo sapiens) of 35 nM.
With `Cc1cc(-c2cnc(N)nc2)ccc1C1(c2noc(-c3cnn(C)c3)n2)CCC1` [Example 295] the IC50 [2] was 12 nM and the IC50 ([3]; Homo sapiens) was 100 nM.
`Nc1ccc(-c2ccc(C3(c4noc(-c5cnc(N6CCNCC6)cn5)n4)CCC3)cc2)cn1` [Example 296, 5-(4-{1-[5-(3,4,5,6-Tetrahydro-2H-[1,2′]bipyrazinyl-5′-yl)-[1,2,4]oxadiazol-3-yl]-cyclobutyl}-phenyl)-pyridin-2-ylamine] gave an IC50 [2] of 2.1 nM and an IC50 ([3]; Homo sapiens) of 230 nM.
`CC(C)(O)Cn1cncc1-c1nc(C2(c3ccc(-c4cnc(N)nc4)cc3)CCC2)no1` [Example 298, 1-[5-(3-{1-[4-(2-Amino-pyrimidin-5-yl)-phenyl]-cyclobutyl}-[1,2,4]oxadiazol-5-yl)-imidazol-1-yl]-2-methyl-propan-2-ol] gave an IC50 [2] of 16 nM and an IC50 ([3]; Homo sapiens) of 510 nM.
`Nc1cnc(-c2ccc(C3(c4noc(-c5cnn(C6COC6)c5)n4)CCC3)cc2)cn1` [Example 299, 5-(4-{1-[5-(1-Oxetan-3-yl-1H-pyrazol-4-yl)-[1,2,4]oxadiazol-3-yl]-cyclobutyl}-phenyl)-pyrazin-2-ylamine; compound with trifluoro-acetic acid] showed an IC50 [2] of 2.9 nM and an IC50 ([3]; Homo sapiens) of 24 nM.
`CN(C)C(=O)Cn1cc(-c2nc(C3(c4ccc(-c5ccc(N)nc5)cc4)CCC3)no2)cn1` [Example 301, 2-[4-(3-{1-[4-(6-Amino-pyridin-3-yl)-phenyl]-cyclobutyl}-[1,2,4]oxadiazol-5-yl)-pyrazol-1-yl]-N,N-dimethyl-acetamide] showed an IC50 [2] of 6 nM and an IC50 ([3]; Homo sapiens) of 140 nM.
With `Nc1cnc(-c2ccc(C3(c4noc(-c5cnc(N6CCNCC6)cn5)n4)CCC3)cc2)cn1` [Example 302, 5-(4-{1-[5-(3,4,5,6-Tetrahydro-2H-[1,2′]bipyrazinyl-5′-yl)-[1,2,4]oxadiazol-3-yl]-cyclobutyl}-phenyl)-pyrazin-2-ylamine] the IC50 [2] was 2.6 nM and the IC50 ([3]; Homo sapiens) was 150 nM.
In the case of `CN(C)C(=O)Cn1cc(-c2nc(C3(c4ccc(-c5cnc(N)cn5)cc4)CCC3)no2)cn1` [Example 304, 2-[4-(3-{1-[4-(5-Amino-pyrazin-2-yl)-phenyl]-cyclobutyl}-[1,2,4]oxadiazol-5-yl)-pyrazol-1-yl]-N,N-dimethyl-acetamide], the IC50 [2] is reported as 10 nM and the IC50 ([3]; Homo sapiens) is reported as 65 nM.
With `Cn1cnc(-c2nc(C3(c4ccc(-c5ccc(N)nc5)cc4)CCC3)no2)c1` [Example 305, 5-(4-{1-[5-(1-Methyl-1H-imidazol-4-yl)-[1,2,4]oxadiazol-3-yl]-cyclobutyl}-phenyl)-pyridin-2-ylamine] the IC50 [2] was 15 nM and the IC50 ([3]; Homo sapiens) was 120 nM.
For `C[C@@H]1CCC[C@H](C)N1c1nc(C2(c3ccc(-c4cnc(N)nc4)cc3)CCC2)no1` [Example 306, 5-(4-{1-[5-(cis-2,6-Dimethyl-piperidin-1-yl)-[1,2,4]oxadiazol-3-yl]-cyclobutyl}-phenyl)-pyrimidin-2-ylamine], the IC50 [2] was 12 nM and the IC50 ([3]; Homo sapiens) was 580 nM.
Compound `Nc1ncc(-c2ccc(C3(c4noc(-c5cnc(N6CCNCC6)cn5)n4)CCC3)cc2)cn1` [Example 307, 5-(4-{1-[5-(3,4,5,6-Tetrahydro-2H-1,2′-bipyrazinyl-5′-yl)-1,2,4-oxadiazol-3-yl]-cyclobutyl}-phenyl)-pyrimidin-2-ylamine] has an IC50 [2] of 3.5 nM and an IC50 [3] of 150 nM.
With `COC(=O)[C@H]1CN(c2cnc(-c3nc(C4(c5ccc(-c6cnc(N)nc6)cc5)CCC4)no3)cn2)CCN1` [Example 308, (R)-5′-(3-{1-[4-(2-Amino-pyrimidin-5-yl)-phenyl]-cyclobutyl}-1,2,4-oxadiazol-5-yl)-3,4,5,6-tetrahydro-2H-1,2′-bipyrazinyl-3-carboxylic acid methyl ester] the IC50 [2] was 5 nM and the IC50 [3] was 480 nM.
`COC(=O)[C@@H]1CN(c2cnc(-c3nc(C4(c5ccc(-c6cnc(N)nc6)cc5)CCC4)no3)cn2)CCN1` [Example 309, (S)-5′-(3-{1-[4-(2-Amino-pyrimidin-5-yl)-phenyl]-cyclobutyl}-1,2,4-oxadiazol-5-yl)-3,4,5,6-tetrahydro-2H-1,2′-bipyrazinyl-3-carboxylic acid methyl ester] showed an IC50 [2] of 5.7 nM and an IC50 [3] of 760 nM.
For `CC(C)(C)Sc1c(CC(C)(C)C(=O)O)n(Cc2ccc(Cl)cc2)c2ccc(OCc3ccc4ccccc4n3)cc12` [MK-591], the effect on proteinuria [4] is listed as “reduce proteinuria”.
For `CC(C)c1ccc2c(c1)c(SC(C)(C)C)c(CC(C)(C)C(=O)O)n2Cc1ccc(Cl)cc1` [MK-886], the “decrease in plaque area in the aortic root” value [5] is listed as about 40%, the “decrease in plaque coverage in the aorta” value [6] is listed as 56% and the “decrease in plaque coverage in the aortic root” value [6] is listed as 43%.
